SMILES strings stand for the structures.

The text below walks through data of patent US11919902B2, “Aryl-bipyridine amine derivatives as phosphatidylinositol phosphate kinase inhibitors” (HiberCell, Inc., priority 2017, dated 2024).

One test concerns the target T1, GST tagged PIP4KtypeIIA (Homo sapiens, UniProt P48426).
T1 construct: made in house; host or cells: E. coli
T1 sequence (P48426 1-406): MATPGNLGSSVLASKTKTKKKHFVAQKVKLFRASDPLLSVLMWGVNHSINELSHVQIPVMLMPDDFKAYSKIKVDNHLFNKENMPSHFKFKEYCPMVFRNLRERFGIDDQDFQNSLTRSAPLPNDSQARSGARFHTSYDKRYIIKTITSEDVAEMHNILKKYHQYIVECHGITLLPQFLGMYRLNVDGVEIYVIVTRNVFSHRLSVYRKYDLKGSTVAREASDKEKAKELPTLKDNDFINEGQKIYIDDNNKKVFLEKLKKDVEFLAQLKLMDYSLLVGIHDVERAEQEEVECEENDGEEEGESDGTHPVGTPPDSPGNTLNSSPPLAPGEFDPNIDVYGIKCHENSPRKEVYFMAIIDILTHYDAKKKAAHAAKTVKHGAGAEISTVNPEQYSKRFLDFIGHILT
As to the kind of experiment: ADP-glo kinase assay PIP4K 2A (PIP4KtypeIIA inhibition assay). The settings on record: Table 3; compounds listed under IC50 range headings; 10 uM ATP, 0.5 nM PIP4KIIA. Format: biochemical. A digest of the protocol:
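Read-out was ADP-Glo luminescence converted to μM ADP, with IC50 plotted as % of no-inhibitor activity against log concentration. Reactions contained 10 μM ATP, 80 μM PI5P with DOPE carrier, and 0.5 nM GST-tagged PIP4KIIA (E. coli-expressed) in pH 7.3 HEPES/MgCl2 buffer with 5% DMSO. Enzyme and compound (≤4.8 μM) were preincubated 1 h at 27 °C before the 1 h reaction.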
(ADP-Glo turns the ADP formed in a reaction into a luminescent signal.)

Test [1] deals with T2, PIP4K2A (full length protein, SignalChem) (Homo sapiens, UniProt P48426).
T2 construct: 4 nM PIP4K2A (full length protein, SignalChem); purchased SignalChem
T2 sequence (P48426 1-406): T1 sequence (P48426 1-406)
Briefly: Kinase Assay PIP4K2 A (Sprint); ADP-Glo biochemical assay. The settings on record: Table 2; compounds listed under IC50 range headings. A digest of the protocol:
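ADP-Glo luminescence detected ADP after a 1 h RT reaction started with 60 μM ATP solution. Before that, full-length PIP4K2A (4 nM in mix) with 100 μM PI(5)P diC8 was pre-incubated 15 min with compounds in MOPS buffer pH 7.2, 25 mM MgCl2, 0.005% Tween 20. IC50 derived from % inhibition relative to DMSO over 10 three-fold concentrations.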

Another test has as its target T3, GST tagged PIP4KtypeIIB (Homo sapiens, UniProt P78356).
T3 construct: made in house; host or cells: E. coli
T3 sequence (P78356 1-416): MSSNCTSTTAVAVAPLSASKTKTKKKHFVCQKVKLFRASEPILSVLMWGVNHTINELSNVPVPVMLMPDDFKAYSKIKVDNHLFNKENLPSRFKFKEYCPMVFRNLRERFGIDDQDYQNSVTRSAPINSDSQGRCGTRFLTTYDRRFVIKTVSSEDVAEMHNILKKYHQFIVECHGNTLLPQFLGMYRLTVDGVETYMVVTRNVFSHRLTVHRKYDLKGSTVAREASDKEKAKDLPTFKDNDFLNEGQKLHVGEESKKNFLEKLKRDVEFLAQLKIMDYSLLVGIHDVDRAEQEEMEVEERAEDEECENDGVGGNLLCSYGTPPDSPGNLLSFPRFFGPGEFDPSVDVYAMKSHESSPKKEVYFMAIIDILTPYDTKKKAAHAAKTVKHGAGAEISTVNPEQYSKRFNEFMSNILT
Briefly: Trans-FI P kinase assay PIP4K2B (PIP4KtypeIIB inhibition assay). The settings on record: Table 4; compounds listed under IC50 range headings; 100 uM GTP, 5 nM PIP4KIIB; read-out: Trans-FI P kinase assays: PIP4K2B IC50. Format: biochemical. A digest of the protocol: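 Transcreener FI fluorescence, converted to GDP by calibration, tracked product from 5 nM E. coli-expressed GST-PIP4KIIB acting on 80 uM PI5P (DOPE carrier) with 100 uM GTP. Compound (top 4.8 uM final, 5% DMSO) was preincubated 1 h at 27 C before the 2 h reaction; IC50 fitted from residual activity.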

For the compound `Cn1ncc2c(-c3cncc(-c4ccc(N5CCCC5=O)cc4)c3)ccnc21` [Example 218, 1-(4-(5-(1-methyl-1H-pyrazolo[3,4-b]pyridin-4-yl)pyridin-3-yl)phenyl)pyrrolidin-2-one], the half-maximal inhibitory concentration (IC50) (commonly the midpoint of a concentration-inhibition curve) lay in the range of 100 to 1000 nM against GST tagged PIP4KtypeIIA, 5 to 100 nM in test [1] and 100 to 1000 nM at GST tagged PIP4KtypeIIB.
Turning to `COC(=O)N1Cc2nccc(-c3cncc(-c4ccc(N5CCCC5=O)cc4)c3)c2C1` [Example 65, methyl 4-(5-(4-(2-oxopyrrolidin-1-yl)phenyl)pyridin-3-yl)-5,7-dihydro-6H-pyrrolo[3,4-b]pyridine-6-carboxylate], the half-inhibitory concentration (IC50) at GST tagged PIP4KtypeIIA fell in the range of 1000 to 2500 nM; in test [1] it was 100 to 1000 nM; on GST tagged PIP4KtypeIIB, 1000 to 2500 nM.
As for `Cc1c(-c2ccc(N3CCCC3=O)cc2)cncc1-c1cn(C)c2ncc(C(C)(C)O)cc12` [Example 172, 1-(4-(5-(5-(2-hydroxypropan-2-yl)-1-methyl-1H-pyrrolo[2,3-b]pyridin-3-yl)-4-methylpyridin-3-yl)phenyl)pyrrolidin-2-one], the IC50 against GST tagged PIP4KtypeIIA is 1000 to 2500 nM; in test [1] it was 100 to 1000 nM; on GST tagged PIP4KtypeIIB, 1000 to 2500 nM.
In the case of `CNC(=O)c1cc2c(-c3cncc(-c4ccc(C(=O)N(C)C)cc4)c3)ccnc2n1C` [Example 13, 4-(5-(4-(dimethylcarbamoyl)phenyl)pyridin-3-yl)-N,1-dimethyl-1H-pyrrolo[2,3-b]pyridine-2-carboxamide], the half-maximal inhibitory concentration (IC50) on GST tagged PIP4KtypeIIA was in the range of 2500 to 5000 nM; in test [1], 1000 to 2500 nM; at GST tagged PIP4KtypeIIB, 1000 to 2500 nM.
With `CN(C)C(=O)c1cc2c(-c3cncc(-c4ccc(N5CCCC5=O)cc4)c3)ccnc2[nH]1` [Example 241, N,N-dimethyl-4-(5-(4-(2-oxopyrrolidin-1-yl)phenyl)pyridin-3-yl)-1H-pyrrolo[2,3-b]pyridine-2-carboxamide], the values for the IC50 (on GST tagged PIP4KtypeIIA; in test [1]; on GST tagged PIP4KtypeIIB) were 10 to 100 nM, 5 to 100 nM and 10 to 100 nM, respectively.
For `COC(=O)c1cc2c(-c3cncc(-c4ccc(N5CCCC5=O)cc4)c3)ccnc2o1` [Example 165, methyl 4-(5-(4-(2-oxopyrrolidin-1-yl)phenyl)pyridin-3-yl)furo[2,3-b]pyridine-2-carboxylate], the IC50 on GST tagged PIP4KtypeIIA was in the range of 10 to 100 nM; in test [1], 5 to 100 nM; on GST tagged PIP4KtypeIIB, 10 to 100 nM.
In the case of `CN1CCn2c(cc3c(-c4cncc(-c5ccc(C(=O)N6CCCCC6)cc5)c4)ccnc32)C1=O` [Example 354, 7-methyl-4-(5-(4-(piperidine-1-carbonyl)phenyl)pyridin-3-yl)-8,9-dihydropyrido[3′,2′:4,5]pyrrolo[1,2-a]pyrazin-6(7H)-one], the IC50 against GST tagged PIP4KtypeIIA lay within 100 to 1000 nM; in test [1], 100 to 1000 nM; on GST tagged PIP4KtypeIIB, 10 to 100 nM.
With `CN(C)C(=O)c1ccc(-c2cncc(-c3ccnc(C(=O)N(C)C)c3)c2)cc1` [Example 9, 5-(4-(dimethylcarbamoyl)phenyl)-N,N-dimethyl-[3,4′-bipyridine]-2′-carboxamide], the IC50 against GST tagged PIP4KtypeIIA is > 5000 nM; in test [1], < 5000 nM; at GST tagged PIP4KtypeIIB, > 5000 nM.
`CN(C)C(=O)c1ccc(-c2cc(-c3ccnc4[nH]c(C(=O)NCc5ccccc5)cc34)cnc2N)nc1` [Example 134, 4-(2′-amino-5-(dimethylcarbamoyl)-[2,3′-bipyridin]-5′-yl)-N-benzyl-1H-pyrrolo[2,3-b]pyridine-2-carboxamide]: the IC50 lay within 100 to 1000 nM against GST tagged PIP4KtypeIIA, 5 to 100 nM in test [1] and 10 to 100 nM at GST tagged PIP4KtypeIIB.
Turning to `O=C1CCCN1c1ccc(-c2cncc(-c3c(OC4CCOCC4)cnc4[nH]ccc34)c2)cc1` [Example 268, 1-(4-(5-(5-((tetrahydro-2H-pyran-4-yl)oxy)-1H-pyrrolo[2,3-b]pyridin-4-yl)pyridin-3-yl)phenyl)pyrrolidin-2-one], the IC50 at GST tagged PIP4KtypeIIA is > 5000 nM; in test [1], 1000 to 2500 nM; on GST tagged PIP4KtypeIIB it was 1000 to 2500 nM.
With `CN(C)C(=O)c1ccc(-c2cc(-c3cc(Nc4cccc(N)c4)ncn3)cnc2N)nc1` [Example 216, 2′-amino-5′-(6-((3-aminophenyl)amino)pyrimidin-4-yl)-N,N-dimethyl-[2,3′-bipyridine]-5-carboxamide], the concentration for half-maximal inhibition (IC50) (against GST tagged PIP4KtypeIIA; in test [1]; on GST tagged PIP4KtypeIIB) was 100 to 1000 nM throughout.
Consider `CNC(=O)c1cc2c(-c3cncc(-c4ccc(N5CCCC5=O)cc4C)c3)ccnc2o1` [Example 170, N-methyl-4-(5-(2-methyl-4-(2-oxopyrrolidin-1-yl)phenyl)pyridin-3-yl)furo[2,3-b]pyridine-2-carboxamide], for which the IC50 is 100 to 1000 nM at GST tagged PIP4KtypeIIA, 5 to 100 nM in test [1] and 100 to 1000 nM on GST tagged PIP4KtypeIIB.
In the case of `Nc1ncc(-c2cccc3nccn23)cc1-c1ccc(N2CCCC2=O)cn1` [Example 25, 1-(2′-amino-5′-(imidazo[1,2-a]pyridin-5-yl)-[2,3′-bipyridin]-5-yl)pyrrolidin-2-one], the IC50 against GST tagged PIP4KtypeIIA was 2500 to 5000 nM; in test [1], 1000 to 2500 nM; on GST tagged PIP4KtypeIIB, > 5000 nM.
For `O=C1CCCN1c1ccc(-c2cncc(-c3cc(Cl)nc4n[nH]cc34)c2)cc1` [Example 224, 1-(4-(5-(6-chloro-2H-pyrazolo[3,4-b]pyridin-4-yl)pyridin-3-yl)phenyl)pyrrolidin-2-one], in that order: 10 to 100 nM, 5 to 100 nM and 10 to 100 nM.
Consider `O=C1CCCN1c1ccc(-c2cncc(-c3ncnc4n[nH]cc34)c2)cc1` [Example 223, 1-(4-(5-(2H-pyrazolo[3,4-d]pyrimidin-4-yl)pyridin-3-yl)phenyl)pyrrolidin-2-one], for which the IC50 (against GST tagged PIP4KtypeIIA; in test [1]; on GST tagged PIP4KtypeIIB) was 100 to 1000 nM throughout.
`CN(C)C(=O)c1cnc2[nH]cc(-c3cncc(-c4ccc(N5CCCC5=O)cc4)c3)c2c1` [Example 72, N,N-dimethyl-3-(5-(4-(2-oxopyrrolidin-1-yl)phenyl)pyridin-3-yl)-1H-pyrrolo[2,3-b]pyridine-5-carboxamide]: the IC50 lay in the range of 100 to 1000 nM at GST tagged PIP4KtypeIIA, 5 to 100 nM in test [1] and 100 to 1000 nM on GST tagged PIP4KtypeIIB.
On to `Nc1ncc(-c2ccnc3[nH]c(C(=O)NCc4ccccc4)cc23)cc1-c1ccc(C(=O)NCc2ccccc2)cn1` [Example 221, 4-(2′-amino-5-(benzylcarbamoyl)-[2,3′-bipyridin]-5′-yl)-N-benzyl-1H-pyrrolo[2,3-b]pyridine-2-carboxamide], for which the 50% inhibitory concentration (IC50) against GST tagged PIP4KtypeIIA is > 5000 nM; in test [1], < 5000 nM; on GST tagged PIP4KtypeIIB, 1000 to 2500 nM.
For `Nc1ncc(-c2c[nH]c3ncc(Cl)cc23)cc1-c1ccc(N2CCCC2=O)cn1` [Example 26, 1-(2′-amino-5′-(5-chloro-1H-pyrrolo[2,3-b]pyridin-3-yl)-[2,3′-bipyridin]-5-yl)pyrrolidin-2-one], in that order: 10 to 100 nM, 5 to 100 nM and 100 to 1000 nM.
On the same counts, the results for `COC(=O)c1cc2c(-c3cncc(-c4ccc(N5CCCC5=O)cc4C)c3)ccnc2[nH]1` [Example 171, methyl 4-(5-(2-methyl-4-(2-oxopyrrolidin-1-yl)phenyl)pyridin-3-yl)-1H-pyrrolo[2,3-b]pyridine-2-carboxylate] are 10 to 100 nM, 5 to 100 nM and 10 to 100 nM.
Turning to `CN1C(=O)Cc2c(-c3cncc(-c4ccc(N5CCCC5=O)cc4)c3)ccnc21` [Example 76, 1-methyl-4-(5-(4-(2-oxopyrrolidin-1-yl)phenyl)pyridin-3-yl)-1,3-dihydro-2H-pyrrolo[2,3-b]pyridin-2-one], the values for the IC50 (against GST tagged PIP4KtypeIIA; in test [1]; on GST tagged PIP4KtypeIIB) were 2500 to 5000 nM, 100 to 1000 nM and 1000 to 2500 nM, respectively.
